Measurements published in US20090137554A1, “1,4,5,6-TETRAHYDRO -PYRROLO[2,3-d]AZEPINES AND -IMIDAZO[4,5-d]AZEPINES AS MODULATORS OF NUCLEAR RECEPTOR ACTIVITY” (Wyeth, priority 2007, published 2009).

Molecular target: T1, Gal4/hFXR fusion protein (Homo sapiens, UniProt Q96RI1)
T1 sequence (Q96RI1 262-486 limits assumed): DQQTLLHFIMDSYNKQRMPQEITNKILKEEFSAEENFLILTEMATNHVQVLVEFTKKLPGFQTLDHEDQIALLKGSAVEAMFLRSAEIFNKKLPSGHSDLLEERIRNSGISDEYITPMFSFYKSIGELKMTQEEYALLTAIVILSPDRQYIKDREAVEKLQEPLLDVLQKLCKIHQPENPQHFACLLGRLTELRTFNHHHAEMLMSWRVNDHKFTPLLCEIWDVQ
Assay: Gal4/hFXR fusion protein agonist activity in human 293 cells (luciferase reporter)
Format: cell-based
Details: Human 293 stable clone 2 expressing Gal4/hFXR, 24 hours incubation
Method: Characterization of Compounds for Gal4/hFXR Fusion Protein Agonist Activity in Human 293 Cells
• 1. Compounds to be tested are prepared as 2× stocks in assay medium. • 2. […] The supernatant is removed and the cells are resuspended in 1 ml assay medium. The cells are counted and diluted in assay medium to 200,000 cells per ml. The cells are then plated at 10,000 cells per well in Culturplate-96 plates in 50 μL assay medium. The cells are incubated at 37° C. for approximately 1 hour. • 3. […] All assays include 1 uM GW4064 as a reference standard. • 4. Cells are incubated for 24 hours at 37° C.
• 5. The medium is removed, and the cells are lysed in 25 uL lysis buffer (Promega, E3971). • 6. The plates are analyzed for luciferase activity with luciferase assay reagent (Promega E1483). Plates are read on Victor^3V instrument using the protocol “Shuguang Luciferase assay” (dispense volume=100 uL, plate type=“Packard Viewplate”, measurement height=8 mm from bottom of plate, 5 second read per well).
• 1. For agonist single point screening, data are analyzed in Excel. Each compound is tested in triplicate. The fold stimulation of each compound is calculated as RLUcpd/RLUbkgd. • 2. Comparison to GW4064 is made by the equation (RLUcpd/RLUbkgd)/(RLUGW4064/RLUbkgd) • 3. For agonist potency determinations, statistical analysis of the data is performed using a customized Excel/SAS program.

| Compound | EC50 [nM] |
| --- | --- |
| CC(C)OC(=O)C1=CN(C(=O)c2ccc(F)c(F)c2)CC(C)(C)c2cc(C#N)[nH]c21 [Example 1, iso-Propyl 2-cyano-6-(3,4-difluorobenzoyl)-4,4-dimethyl-1,4,5,6-tetrahydropyrrolo[2,3-d]azepine-8-carboxylate] | 5.3 |
| CC(C)OC(=O)C1=CN(C(=O)c2cccs2)CC(C)(C)c2cc(C#N)[nH]c21 [Example 7, iso-Propyl 2-cyano-4,4-dimethyl-6-(2-thienylcarbonyl)-1,4,5,6-tetrahydropyrrolo[2,3-d]azepine-8-carboxylate] | 22 |
| CC(C)OC(=O)C1=CN(C(=O)c2cccc(C(F)(F)F)c2)CC(C)(C)c2cc(C#N)[nH]c21 [Example 8, iso-Propyl 2-cyano-4,4-dimethyl-6-[3-(trifluoromethyl)benzoyl]-1,4,5,6-tetrahydropyrrolo[2,3-d]azepine-8-carboxylate] | 8 |
| CC(C)OC(=O)C1=CN(C(=O)C2CCOCC2)CC(C)(C)c2cc(C#N)[nH]c21 [Example 9, iso-Propyl 2-cyano-4,4-dimethyl-6-(tetrahydro-2H-pyran-4-ylcarbonyl)-1,4,5,6-tetrahydropyrrolo[2,3-d]azepine-8-carboxylate] | 8.9 |
| CC(C)OC(=O)C1=CN(C(=O)c2ccc(F)c(F)c2)CC2(CCOCC2)c2cc(C#N)[nH]c21 [Example 10, iso-Propyl 2′-cyano-6′-(3,4-difluorobenzoyl)-2,3,5,5′,6,6′-hexahydro-1′H-spiro[pyran-4,4′-pyrrolo[2,3-d]azepine]-8′carboxylate] | 86 |
